In patent publication US9174933B2:

Assay: Dynamic Vapor Sorption/Desorption (DVS)
Assay type: physicochemical
Conditions: 5% to 95% relative humidity at 10% RH intervals, nitrogen purge
Experimental: Moisture sorption/desorption data were collected on a VTI SGA-100 Vapor Sorption Analyzer. Sorption and desorption data were collected over a range of 5% to 95% relative humidity (RH) at 10% RH intervals under a nitrogen purge. Samples were not dried prior to analysis. Equilibrium criteria used for analysis were less than 0.0100% weight change in 5 minutes, with a maximum equilibration time of 3 hours if the weight criterion was not met. Data were not corrected for the initial moisture content of the samples. Sodium chloride and polyvinypyrrolidine were used as calibration standards.

Structure (SMILES): COc1cc(F)c(F)c(Nc2ccc(I)cc2F)c1NS(=O)(=O)C1(C[C@H](O)CO)CC1 [Form A]
- weight change during moisture sorption/desorption: negligible weight change
